Reference: US4751302A, “Indazole derivatives” (priority 1982, dated 1988)
Several values for one entry are separate records, joined by “and”; a condition that tells them apart may be missing. Equal values may be shown once. Entries after “also recorded” stand apart in the source; their conditions may differ. Read-outs that look alike come from different tables or passages of the source.

Columns and labels:
[1] = Superoxide capture by ESR and UV spectra (potassium superoxide / dicyclohexyl-18-crown-6 in acetonitrile); type: biochemical; conditions: for catch of superoxide / one electron acceptance: ESR and UV
Experimental: As described in Yoshihiko Oyagi, "Superoxide and Medical Science", pp. 120-144, published by Kyoritsu Shuppan, a superoxide is considered to be one of the factors which cause the inflammation.
According to the description on Transactions of the Faraday Society, 59, 2016-2026 (1963), the UV spectrum of a phenoxy radical is observed at 380-430 nm. When the UV spectrum of a mixture of the 3-amino-5-hydroxyindazole and dicyclohexyl-18-crown-6 is measured in acetonitrile, λmax is observed at 306 nm. If potassium superoxide is added to the mixture, λmax is observed at 403 nm and 426 nm. On the other hand, no absorptions are observed at 350-450 nm when the UV spectra of potassium superoxide and 3-amino-5-hydroxyindazole are measured respectively in the presence of both dicyclohexyl-18-crown-6 and acetonitrile.

[2] = tested on: Carrageenin edema in rat's paw; assay: Carrageenin Edema Test in Rat's Paw (anti-inflammatory activity, Table 1); type: in vivo; conditions: 100 mg/kg oral, hydrochloride, rat
Experimental: An anti-inflammatory activity was measured by orally administering 100 mg/kg of a hydrochloride of the indazole derivative of this invention as set forth in Table 1 to an animal in accordance with the standard method of Carrageenin Edema Test in Rat's Paw described in C. A. Winter et al., Proc. Soc. Exp. Biol. Med., 111, 544 (1962).

acetic acid-writing = assay: Analgesic activity, acetic acid-writing test (Table 3); type: in vivo, animal (rat); standard mouse acetic acid-writing test
[3] = tested on: Bradykinin inducing edema; assay: Anti-edema test, bradykinin inducing edema (Table 2); type: in vivo, rat; conditions: after 30 minutes
Experimental: (§1) […] A. Winter et al., NonSteroidal Anti-inflammatory Drugs. As an edema inducing substance, bradykinin, histamine and serotonin were employed. […] Bradykinin inducing edema inhibition and histamine inducing edema inhibition were measured after 30 minutes of the administration, and serotonin inducing edema inhibition was measured after 3 hours of the administration.

Histamine inducing edema = assay: Anti-edema test, histamine inducing edema (Table 2); type: in vivo, rat; conditions: after 30 minutes
Experimental: as §1

Serotonin inducing edema = assay: Anti-edema test, serotonin inducing edema (Table 2); type: in vivo, rat; conditions: after 3 hours
Experimental: as §1

[4] = Locomotor activity observation in carrageenin-treated rats; type: in vivo, female Wister rats; conditions: oral, carrageenin-injected rats
Experimental: (§2) To female Wister rats weighing 130-150 g nothing was fed for 19 hours. Then, the rats were orally administered the test compound. Sixty minutes later, the pad of a hind paw of the rat was injected with 0.1 ml of 1% carrageenin solution. After edema was formed on the paw, paw volume and body temperature of the rat were measured, and movement of the rat was observed. As a result, both 3-amino-5-chloroindazole and Compound (46) show a strong inhibition to the edema, that is, 65% and 59%, respectively,after 3 hours from the injection.

[5] = Body temperature / side effects in carrageenin-treated rats; type: in vivo, female Wister rats
Experimental: as §2

[6] = tested on: carrageenin edema on hind paw; assay: Carrageenin edema inhibition, comparison with 3-amino-5-chloroindazole; type: in vivo, female Wister rats; conditions: oral; for inhibition to the (carrageenin) edema: after 3 hours from the injection of 1% carrageenin
Experimental: as §2

gastric ulcer = type: in vivo, Male donryu rats
Experimental: The test compound was suspended in 1% HCO-60 (trade name for polyoxyethylene hydrogenated castor oil; a product of Nikko Chemical Co., Ltd., Japan) at the concentration of 10 mg/ml. Male donryu rats weighing 150-160 g were orally administered 100 mg/kg of the test compound. The occurrence of gastric ulcer was examined 24 hours after the administration.
It is well known that the single use of acidic non-steroidal anti-inflammatory drugs causes a side effect in digestive tract ulcers such as gastric ulcer. The inventors found, however, that the side effect could be suppressed if the acidic non-steroidal anti-inflammatory drugs were used in combination with the indazole derivatives or pharmaceutically acceptable salts thereof of this invention. For example, gastric ulcer was caused by a single administration of 10 mg/kg of indomethacin in an ulcer index of 10.2 mm, and in an occurrence frequency of 6/6 (Ulcer generation animal number/Total animal number).

in vivo = conditions: mouse, ip, intraperitoneal, hydrochloride, male ddy mice
[7] = potassium superoxide, dicyclohexyl-18-crown-6, acetonitrile
[8] = 100 mg/kg Compound (126) together with 10 mg/kg indomethacin

| SMILES | inhibition in vivo at 100 mg/kg [2] | Inhibition (acetic acid-writing, analgesic activity) (acetic acid-writing; 100 mg/kg oral) | Bradykinin inducing edema Inhibition ([3]; 100 mg/kg oral) | Histamine inducing edema Inhibition (Histamine inducing edema; 100 mg/kg oral) | Serotonin inducing edema Inhibition (Serotonin inducing edema; 100 mg/kg oral) | LD50 (in vivo) | further results |
| --- | --- | --- | --- | --- | --- | --- | --- |
| Nc1n[nH]c2ccc(O)cc12 [3-amino-5-hydroxyindazole, 3-Amino-5-hydroxyindazole] | – | – | – | – | – | – | ESR signals on addition to superoxide mixture (phenoxy radical) [1, 7]: six superfine signals are observed; catch of superoxide / one electron acceptance [1, 7]: a phenoxy radical is produced; UV λmax after adding potassium superoxide (phenoxy radical) ([1]; with potassium superoxide and dicyclohexyl-18-crown-6 in acetonitrile): 403 nm and 426 nm |
| c1ccc2c(NCCCN3CCOCC3)n[nH]c2c1 [(152), 3-(3-Morpholinopropylamino)indazole] | 51% | 57% | 37% | 20.7% | 42.9% | – | – |
| Nc1n[nH]c2ccc(Cl)cc12 [3-amino-5-chloroindazole, reference compound] | – | – | – | – | – | – | depression of locomotor activity [4]: remarkable depression of locomotor activity; decrease of body temperature ([5]; oral, carrageenin-injected rats): 3-4 °C; inhibition to the (carrageenin) edema [6]: 65% |
| CCCCC1C(=O)N(c2ccccc2)N(c2ccccc2)C1=O [Compound C-5, 3,5-dioxo-1,2-diphenyl-4-n-butylpyrazolidine] | – | 9% | 2.9% | 0% | 2.8% | – | – |
| CCN(CC)CCCn1nc(NCCCN2CCCCC2)c2cc(O)ccc21 [(126), 1-(3-Diethylaminopropyl)-3-(3-piperidinopropylamino)-5-hydroxyindazole] | 28% | – | – | – | – | 310 mg/kg | occurrence frequency of ulcer (gastric ulcer; [8]): the occurrence frequency was not changed; ulcer index (gastric ulcer; [8]): 5.8 mm; occurrence of gastric ulcer (gastric ulcer; rat, in vivo): gastric ulcer did not occur |
| Nc1n[nH]c2ccc(O)cc12 [(162), 3-Amino-5-hydroxyindazole] | 45% | – | – | – | – | 243 mg/kg | catch of superoxide / one electron acceptance [1, 7]: can catch the superoxide; also recorded: accepts one electron from the superoxide |
| COc1ccc2c(c1)c(CC(=O)O)c(C)n2C(=O)c1ccc(Cl)cc1 [Compound C-4, Indomethacin] | – | – | – | – | – | – | Inhibition (acetic acid-writing, analgesic activity) (acetic acid-writing; Dose: 20 mg/kg, oral): 50%; Bradykinin inducing edema Inhibition ([3]; Dose: 10 mg/kg, oral): 0.4%; Histamine inducing edema Inhibition (Histamine inducing edema; Dose: 10 mg/kg, oral): 0%; Serotonin inducing edema Inhibition (Serotonin inducing edema; Dose: 10 mg/kg, oral): 21.4% |
| CCN(CC)CCCNc1n[nH]c2ccc(Cl)cc12 [(46), 3-(3-Diethylaminopropylamino)-5-chloroindazole] | 59% | 52% | 14.7% | 31.0% | 73.4% | 211 mg/kg | side effects (decrease of body temperature, depression of locomotor activity), words ([5]; relative to 3-amino-5-chloroindazole): can relieve the side effects of 3-amino-5-chloroindazole; Carrageenin edema inhibition activity relative to 3-amino-5-chloroindazole [6]: the same Carrageenin edema inhibition activity as 3-amino-5-chloroindazole; inhibition to the (carrageenin) edema [6]: 59% |
| COc1ccc2c(c1)c(CC(=O)O)c(C)n2C(=O)c1ccc(Cl)cc1 [indomethacin, 1-(p-chlorobenzoyl)-5-methoxy-2-methyl-indole-3-acetic acid, reference compound] | – | – | – | – | – | – | occurrence frequency (Ulcer generation animal number/Total animal number) (gastric ulcer; rat, in vivo, 10 mg/kg): 6/6; ulcer index (gastric ulcer; rat, in vivo, 10 mg/kg): 10.2 mm |
